Experimental data taken from US12370192B2, “Azole-fused pyridazin-3(2H)-one derivatives” (TAKEDA PHARMACEUTICAL COMPANY LIMITED, priority 2019, dated 2025).

Experiments:
human GPR139 receptor [1] = molecular target: T1, human GPR139 receptor (Homo sapiens, UniProt Q6DWJ6); assay: Measurement of GPR139 Activation Via Calcium Signaling (FLIPR, T-REx-CHO cells); assay type: cell-based; settings: T-REx-CHO cells stably expressing human GPR139, 11-point dose response, 10 μM maximum concentration, read-out: GPR139 Potency (pEC50) (converted)
T1 construct: expressed in transfected cells; host or cells: T-REx-CHO (Thermo Fisher Scientific), doxycycline-induced
T1 sequence (Q6DWJ6 1-353): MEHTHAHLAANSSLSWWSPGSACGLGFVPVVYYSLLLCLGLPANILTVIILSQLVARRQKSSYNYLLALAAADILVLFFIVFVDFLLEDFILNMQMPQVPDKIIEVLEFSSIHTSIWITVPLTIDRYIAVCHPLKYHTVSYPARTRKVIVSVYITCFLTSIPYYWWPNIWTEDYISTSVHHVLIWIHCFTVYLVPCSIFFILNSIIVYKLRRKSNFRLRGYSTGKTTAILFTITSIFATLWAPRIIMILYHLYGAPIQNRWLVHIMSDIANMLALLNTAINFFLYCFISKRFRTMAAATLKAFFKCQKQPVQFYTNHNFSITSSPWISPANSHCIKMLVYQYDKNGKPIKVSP
Outline: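 T-REx-CHO cells stably carrying human GPR139 under tetracycline control, induced with 2 μg/mL doxycycline for 17 h at 37 °C, loaded 40 min with Calcium 5 dye plus probenecid in HBSS/HEPES pH 7.4. Agonist added as 11-point series (10 μM top); fluorescence read 1 min; pEC50 from four-parameter fit.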

human GPR139 receptor [2] = molecular target: T1, human GPR139 receptor; assay: GPR139 Competition Binding (membrane-based, tritium-labeled ligand); settings: T-REx-CHO membranes with human GPR139; 6.5 nM tritium-labeled ligand; 11-point curve, 30 μM maximum concentration; read-out: GPR139 Binding Affinity (pKi) (converted)
Outline: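 Membranes came from doxycycline-induced T-REx-CHO cells expressing human GPR139. They were incubated 20 min at room temperature with 6.5 nM tritiated ligand and compound (11 points, top 30 μM) in HEPES pH 7.3 buffer with MgCl2/CaCl2. Filter-bound counts gave Ki by four-parameter fit, reported as pKi.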

C[C@H](NC(=O)Cn1ncc2c(C3CC3)nn(C)c2c1=O)c1cccc(F)c1 [Example 148, (S)-2-(3-cyclopropyl-1-methyl-7-oxo-1,7-dihydro-6H-pyrazolo[3,4-d]pyridazin-6-yl)-N-(1-(3-fluorophenyl)ethyl)acetamide]
EC50 (human GPR139 receptor [1]): 20 nM | Ki (human GPR139 receptor [2]): 589 nM

Cc1ccc([C@H](C)NC(=O)Cn2ncc3c(C4CC4)nn(C)c3c2=O)cc1 [Example 149, (S)-2-(3-cyclopropyl-1-methyl-7-oxo-1,7-dihydro-6H-pyrazolo[3,4-d]pyridazin-6-yl)-N-(1-(p-tolyl)ethyl)acetamide]
EC50 (human GPR139 receptor [1]): 26.3 nM | Ki (human GPR139 receptor [2]): 219 nM

C[C@H](NC(=O)Cn1ncc2c(C3CC3)nn(C)c2c1=O)c1c(F)cccc1Cl [Example 150, (S)—N-(1-(2-chloro-6-fluorophenyl)ethyl)-2-(3-cyclopropyl-1-methyl-7-oxo-1,7-dihydro-6H-pyrazolo[3,4-d]pyridazin-6-yl)acetamide]
EC50 (human GPR139 receptor [1]): 47.9 nM | Ki (human GPR139 receptor [2]): 77.6 nM

Cc1ccc([C@H](C)NC(=O)Cn2ncc3c(C4CC4)nn(C)c3c2=O)cc1F [Example 151, (S)-2-(3-cyclopropyl-1-methyl-7-oxo-1,7-dihydro-6H-pyrazolo[3,4-d]pyridazin-6-yl)-N-(1-(3-fluoro-4-methylphenyl)ethyl)acetamide]
EC50 (human GPR139 receptor [1]): 20.4 nM | Ki (human GPR139 receptor [2]): 60.3 nM

Cc1ccc([C@H](C)NC(=O)Cn2ncc3c(C4CC4)nn(C)c3c2=O)c(F)c1 [Example 152, (S)-2-(3-cyclopropyl-1-methyl-7-oxo-1,7-dihydro-6H-pyrazolo[3,4-d]pyridazin-6-yl)-N-(1-(2-fluoro-4-methylphenyl)ethyl)acetamide]
EC50 (human GPR139 receptor [1]): 28.8 nM | Ki (human GPR139 receptor [2]): 110 nM

C[C@H](NC(=O)Cn1ncc2ccn(C)c2c1=O)c1ccccc1 [Example 153, (S)-2-(1-methyl-7-oxo-1,7-dihydro-6H-pyrrolo[2,3-d]pyridazin-6-yl)-N-(1-phenylethyl)acetamide]
EC50 (human GPR139 receptor [1]): 89.1 nM | Ki (human GPR139 receptor [2]): 1740 nM

Cc1nn(CC(=O)N[C@@H](C)c2cccc(F)c2)c(=O)c2c1c(C)nn2C [Example 154, (S)—N-(1-(3-fluorophenyl)ethyl)-2-(1,3,4-trimethyl-7-oxo-1,7-dihydro-6H-pyrazolo[3,4-d]pyridazin-6-yl)acetamide]
EC50 (human GPR139 receptor [1]): 21.4 nM | Ki (human GPR139 receptor [2]): 490 nM

Cc1nn(C2CCC2)c2cnn(CC(=O)N[C@@H](C)c3ccc(C(F)(F)F)cc3)c(=O)c12 [Example 155, (S)-2-(1-cyclobutyl-3-methyl-4-oxo-1,4-dihydro-5H-pyrazolo[3,4-d]pyridazin-5-yl)-N-(1-(4-(trifluoromethyl)phenyl)ethyl)acetamide]
EC50 (human GPR139 receptor [1]): 87.1 nM | Ki (human GPR139 receptor [2]): 178 nM

Cc1nn(C23CC(C2)C3)c2cnn(CC(=O)N[C@@H](C)c3ccc(C(F)(F)F)cc3)c(=O)c12 [Example 156, (S)-2-(1-(bicyclo[1.1.1]pentan-1-yl)-3-methyl-4-oxo-1,4-dihydro-5H-pyrazolo[3,4-d]pyridazin-5-yl)-N-(1-(4-(trifluoromethyl)phenyl)ethyl)acetamide]
EC50 (human GPR139 receptor [1]): 107 nM | Ki (human GPR139 receptor [2]): 331 nM

Cc1nn(C(C)(C)C)c2cnn(CC(=O)N[C@@H](C)c3ccc(C(F)(F)F)cc3)c(=O)c12 [Example 157, (S)-2-(1-(tert-butyl)-3-methyl-4-oxo-1,4-dihydro-5H-pyrazolo[3,4-d]pyridazin-5-yl)-N-(1-(4-(trifluoromethyl)phenyl)ethyl)acetamide]
EC50 (human GPR139 receptor [1]): 126 nM | Ki (human GPR139 receptor [2]): 234 nM

Cc1ccc([C@H](C)NC(=O)Cn2ncc3c(C4CC4)cn(C)c3c2=O)cc1 [Example 158, (S)-2-(3-cyclopropyl-1-methyl-7-oxo-1,7-dihydro-6H-pyrrolo[2,3-d]pyridazin-6-yl)-N-(1-(p-tolyl)ethyl)acetamide]
EC50 (human GPR139 receptor [1]): 57.5 nM | Ki (human GPR139 receptor [2]): 47.9 nM

C[C@H](NC(=O)Cn1ncc2c(C3CC3)cn(C)c2c1=O)c1ccc(C(F)(F)F)cc1 [Example 159, (S)-2-(3-cyclopropyl-1-methyl-7-oxo-1,7-dihydro-6H-pyrrolo[2,3-d]pyridazin-6-yl)-N-(1-(4-(trifluoromethyl)phenyl)ethyl)acetamide]
EC50 (human GPR139 receptor [1]): 100 nM | Ki (human GPR139 receptor [2]): 79.4 nM

Cc1nn(C2CC2)c2cnn(CC(=O)N[C@H](C)c3ccc(C(F)(F)F)cc3)c(=O)c12 [Example 160, (R)-2-(1-cyclopropyl-3-methyl-4-oxo-1,4-dihydro-5H-pyrazolo[3,4-d]pyridazin-5-yl)-N-(1-(4-(trifluoromethyl)phenyl)ethyl)acetamide]
EC50 (human GPR139 receptor [1]): 295 nM | Ki (human GPR139 receptor [2]): 30200 nM

C[C@H](NC(=O)Cn1ncc2ccn(C)c2c1=O)c1ccc(Cl)cc1 [Example 161, (S)—N-(1-(4-chlorophenyl)ethyl)-2-(1-methyl-7-oxo-1,7-dihydro-6H-pyrrolo[2,3-d]pyridazin-6-yl)acetamide]
EC50 (human GPR139 receptor [1]): 8.51 nM | Ki (human GPR139 receptor [2]): 105 nM

Cc1ccc([C@H](C)NC(=O)Cn2ncc3ccn(C)c3c2=O)cc1 [Example 162, (S)-2-(1-methyl-7-oxo-1,7-dihydro-6H-pyrrolo[2,3-d]pyridazin-6-yl)-N-(1-(p-tolyl)ethyl)acetamide]
EC50 (human GPR139 receptor [1]): 13.2 nM | Ki (human GPR139 receptor [2]): 195 nM

COc1ccc([C@H](C)NC(=O)Cn2ncc3ccn(C)c3c2=O)cc1 [Example 163, (S)—N-(1-(4-methoxyphenyl)ethyl)-2-(1-methyl-7-oxo-1,7-dihydro-6H-pyrrolo[2,3-d]pyridazin-6-yl)acetamide]
EC50 (human GPR139 receptor [1]): 15.5 nM | Ki (human GPR139 receptor [2]): 1780 nM

Cc1ccc([C@H](C)NC(=O)Cn2ncc3ccn(C)c3c2=O)c(F)c1 [Example 165, (S)—N-(1-(2-fluoro-4-methylphenyl)ethyl)-2-(1-methyl-7-oxo-1,7-dihydro-6H-pyrrolo[2,3-d]pyridazin-6-yl)acetamide]
EC50 (human GPR139 receptor [1]): 12.6 nM | Ki (human GPR139 receptor [2]): 70.8 nM

[2H]C([2H])([2H])c1ccc([C@H](C)NC(=O)Cn2ncc3c(cnn3C(C)C)c2=O)cc1 [Example 166, (S)-2-(1-isopropyl-4-oxo-1,4-dihydro-5H-pyrazolo[3,4-d]pyridazin-5-yl)-N-(1-(4-(methyl-d3)phenyl)ethyl)acetamide]
EC50 (human GPR139 receptor [1]): 53.7 nM | Ki (human GPR139 receptor [2]): 2340 nM

[2H]C([2H])([2H])c1ccc([C@H](C)NC(=O)Cn2ncc3c(c(C)nn3C3CC3)c2=O)cc1 [Example 167, (S)-2-(1-cyclopropyl-3-methyl-4-oxo-1,4-dihydro-5H-pyrazolo[3,4-d]pyridazin-5-yl)-N-(1-(4-(methyl-d3)phenyl)ethyl)acetamide]
EC50 (human GPR139 receptor [1]): 63.1 nM | Ki (human GPR139 receptor [2]): 316 nM

[2H]C([2H])([2H])c1ccc([C@H](C)NC(=O)Cn2ncc3c(c(C)nn3C(C)C)c2=O)cc1 [Example 168, (S)-2-(1-isopropyl-3-methyl-4-oxo-1,4-dihydro-5H-pyrazolo[3,4-d]pyridazin-5-yl)-N-(1-(4-(Methyl-d3)phenyl)ethyl)acetamide]
EC50 (human GPR139 receptor [1]): 43.7 nM | Ki (human GPR139 receptor [2]): 380 nM

Cc1ccc([C@H](C)NC(=O)Cn2ncc3c(c(C(F)(F)F)nn3C)c2=O)cc1 [Example 169, (S)-2-(1-methyl-4-oxo-3-(trifluoromethyl)-1,4-dihydro-5H-pyrazolo[3,4-d]pyridazin-5-yl)-N-(1-(p-tolyl)ethyl)acetamide]
EC50 (human GPR139 receptor [1]): 51.3 nM | Ki (human GPR139 receptor [2]): 75.9 nM

Cc1ccc([C@H](C)NC(=O)Cn2ncc3c(c(C(F)(F)F)nn3C)c2=O)c(F)c1 [Example 170, (S)—N-(1-(2-fluoro-4-methylphenyl)ethyl)-2-(1-methyl-4-oxo-3-(trifluoromethyl)-1,4-dihydro-5H-pyrazolo[3,4-d]pyridazin-5-yl)acetamide]
EC50 (human GPR139 receptor [1]): 72.4 nM | Ki (human GPR139 receptor [2]): 20.9 nM

Cc1ccc([C@H](C)NC(=O)Cn2ncc3c(c(C(F)(F)F)nn3C)c2=O)cc1F [Example 171, (S)—N-(1-(3-fluoro-4-methylphenyl)ethyl)-2-(1-methyl-4-oxo-3-(trifluoromethyl)-1,4-dihydro-5H-pyrazolo[3,4-d]pyridazin-5-yl)acetamide]
EC50 (human GPR139 receptor [1]): 41.7 nM | Ki (human GPR139 receptor [2]): 24 nM

C[C@H](NC(=O)Cn1ncc2c(c(C(F)(F)F)nn2C)c1=O)c1ccc(C(F)(F)F)cc1 [Example 172, (S)-2-(1-methyl-4-oxo-3-(trifluoromethyl)-1,4-dihydro-5H-pyrazolo[3,4-d]pyridazin-5-yl)-N-(1-(4-(trifluoromethyl)phenyl)ethyl)acetamide]
EC50 (human GPR139 receptor [1]): 93.3 nM | Ki (human GPR139 receptor [2]): 178 nM

[2H]C([2H])([2H])c1ccc([C@H](C)NC(=O)Cn2ncc3ccn(C)c3c2=O)cc1 [Example 174, (S)-2-(1-methyl-7-oxo-1,7-dihydro-6H-pyrrolo[2,3-d]pyridazin-1-yl)-N-(1-(4-(methyl-d3)phenyl)ethyl)acetamide]
EC50 (human GPR139 receptor [1]): 17.8 nM | Ki (human GPR139 receptor [2]): 234 nM
